ChEMBL document CHEMBL4219183, “Novel purine benzimidazoles as antimicrobial agents by regulating ROS generation and targeting clinically resistant Staphylococcus aureus DNA groove” (Bioorg Med Chem Lett, 2018)
Converted amounts (≈) assume the structure as drawn.

Key:
Type in all cases: functional
[1] = tested on: Candida albicans; assay: Antifungal activity against Candida albicans ATCC 90023 after 24 hrs by two fold serial dilution method; conditions: ATCC 90023, 24 h
[2] = tested on: Staphylococcus aureus; assay: Antibacterial activity against methicillin-resistant Staphylococcus aureus N315 after 24 hrs by two fold serial dilution method; conditions: N315, 24 h
[3] = tested on: Aspergillus fumigatus; assay: Antifungal activity against Aspergillus fumigatus after 24 hrs by two fold serial dilution method
[4] = tested on: Enterococcus faecalis; assay: Antibacterial activity against Enterococcus faecalis after 24 hrs by two fold serial dilution method
[5] = tested on: Staphylococcus aureus; assay: Antibacterial activity against Staphylococcus aureus ATCC 29213 after 24 hrs by two fold serial dilution method; conditions: ATCC 29213, 24 h
[6] = tested on: Candida parapsilosis; assay: Antifungal activity against Candida parapsilosis ATCC 22019 after 24 hrs by two fold serial dilution method; conditions: ATCC 22019, 24 h
[7] = tested on: Acinetobacter baumannii; assay: Antibacterial activity against Acinetobacter baumannii after 24 hrs by two fold serial dilution method
[8] = tested on: Escherichia coli; assay: Antibacterial activity against Escherichia coli ATCC 25922 after 24 hrs by two fold serial dilution method; conditions: ATCC 25922, 24 h
[9] = tested on: Escherichia coli; assay: Antibacterial activity against Escherichia coli after 24 hrs by two fold serial dilution method
[10] = tested on: Candida albicans; assay: Antifungal activity against Candida albicans after 24 hrs by two fold serial dilution method
[11] = tested on: Staphylococcus aureus; assay: Antibacterial activity against Staphylococcus aureus ATCC 25923 after 24 hrs by two fold serial dilution method; conditions: ATCC 25923, 24 h
[12] = tested on: Pseudomonas aeruginosa; assay: Antibacterial activity against Pseudomonas aeruginosa ATCC 27853 after 24 hrs by two fold serial dilution method; conditions: ATCC 27853, 24 h
[13] = tested on: Pseudomonas aeruginosa; assay: Antibacterial activity against Pseudomonas aeruginosa after 24 hrs by two fold serial dilution method
[14] = tested on: Staphylococcus aureus; assay: Antibacterial activity against Staphylococcus aureus after 24 hrs by two fold serial dilution method
[15] = tested on: Klebsiella pneumoniae; assay: Antibacterial activity against Klebsiella pneumoniae after 24 hrs by two fold serial dilution method
[16] = tested on: Candida tropicalis; assay: Antifungal activity against Candida tropicalis after 24 hrs by two fold serial dilution method

Row | Compound | MIC80 [1] [µg/mL] | MIC [2] [µg/mL] | MIC80 [3] [µg/mL] | MIC [4] [µg/mL] | MIC [5] [µg/mL] | MIC80 [6] [µg/mL] | MIC [7] [µg/mL] | MIC [8] [µg/mL] | MIC [9] [µg/mL] | MIC80 [10] [µg/mL] | MIC [11] [µg/mL] | MIC [12] [µg/mL] | MIC [13] [µg/mL] | MIC [14] [µg/mL] | MIC [15] [µg/mL] | MIC80 [16] [µg/mL]
1 | c1nc(N2CCCCC2)c2nc[nH]c2n1 | 128 (≈ 630 µM) | 512 (≈ 2520 µM) | 64 (≈ 315 µM) | 256 (≈ 1260 µM) | 512 (≈ 2520 µM) | 512 (≈ 2520 µM) | 128 (≈ 630 µM) | 256 (≈ 1260 µM) | 256 (≈ 1260 µM) | 128 (≈ 630 µM) | 512 (≈ 2520 µM) | 64 (≈ 315 µM) | 256 (≈ 1260 µM) | 32 (≈ 157 µM) | 256 (≈ 1260 µM) | 256 (≈ 1260 µM)
2 | Fc1ccccc1Cn1c(Cn2cnc3c(N4CCOCC4)ncnc32)nc2ccccc21 | 64 (≈ 144 µM) | 256 (≈ 577 µM) | 64 (≈ 144 µM) | 64 (≈ 144 µM) | 16 (≈ 36.1 µM) | 512 (≈ 1150 µM) | 128 (≈ 289 µM) | 256 (≈ 577 µM) | 64 (≈ 144 µM) | 256 (≈ 577 µM) | 128 (≈ 289 µM) | 32 (≈ 72.2 µM) | 32 (≈ 72.2 µM) | 256 (≈ 577 µM) | 64 (≈ 144 µM) | 256 (≈ 577 µM)
3 | C=CCn1c(Cn2cnc3c(N4CCOCC4)ncnc32)nc2ccccc21 | 128 (≈ 341 µM) | 512 (≈ 1360 µM) | 128 (≈ 341 µM) | 128 (≈ 341 µM) | 128 (≈ 341 µM) | 32 (≈ 85.2 µM) | 128 (≈ 341 µM) | 256 (≈ 682 µM) | 256 (≈ 682 µM) | 512 (≈ 1360 µM) | 256 (≈ 682 µM) | 128 (≈ 341 µM) | 256 (≈ 682 µM) | 256 (≈ 682 µM) | 128 (≈ 341 µM) | 256 (≈ 682 µM)
4 | Clc1ccccc1Cn1c(Cn2cnc3c(N4CCOCC4)ncnc32)nc2ccccc21 | 256 (≈ 557 µM) | 512 (≈ 1110 µM) | 256 (≈ 557 µM) | 256 (≈ 557 µM) | 32 (≈ 69.6 µM) | 256 (≈ 557 µM) | 256 (≈ 557 µM) | 256 (≈ 557 µM) | 128 (≈ 278 µM) | 256 (≈ 557 µM) | 256 (≈ 557 µM) | 64 (≈ 139 µM) | 128 (≈ 278 µM) | 256 (≈ 557 µM) | 64 (≈ 139 µM) | 256 (≈ 557 µM)
5 | Cc1cc2ncn(CCn3cnc4c(N5CCOCC5)ncnc43)c2cc1C | 128 (≈ 339 µM) | 256 (≈ 678 µM) | 128 (≈ 339 µM) | 128 (≈ 339 µM) | 128 (≈ 339 µM) | 256 (≈ 678 µM) | 256 (≈ 678 µM) | 256 (≈ 678 µM) | 256 (≈ 678 µM) | 256 (≈ 678 µM) | 256 (≈ 678 µM) | 128 (≈ 339 µM) | 32 (≈ 84.8 µM) | 256 (≈ 678 µM) | 64 (≈ 170 µM) | 128 (≈ 339 µM)
6 | FC(F)(F)c1nc2ccccc2n1CCn1cnc2c(N3CCOCC3)ncnc21 | 256 (≈ 613 µM) | 256 (≈ 613 µM) | 256 (≈ 613 µM) | 64 (≈ 153 µM) | 128 (≈ 307 µM) | 128 (≈ 307 µM) | 64 (≈ 153 µM) | 128 (≈ 307 µM) | 32 (≈ 76.7 µM) | 256 (≈ 613 µM) | 64 (≈ 153 µM) | 64 (≈ 153 µM) | 128 (≈ 307 µM) | 32 (≈ 76.7 µM) | 64 (≈ 153 µM) | 256 (≈ 613 µM)
7 | CCn1c(Cn2cnc3c(N4CCOCC4)ncnc32)nc2ccccc21 | 128 (≈ 352 µM) | 256 (≈ 704 µM) | 256 (≈ 704 µM) | 128 (≈ 352 µM) | 256 (≈ 704 µM) | 256 (≈ 704 µM) | 256 (≈ 704 µM) | 128 (≈ 352 µM) | 128 (≈ 352 µM) | 256 (≈ 704 µM) | 256 (≈ 704 µM) | 256 (≈ 704 µM) | 128 (≈ 352 µM) | 256 (≈ 704 µM) | 256 (≈ 704 µM) | 256 (≈ 704 µM)
8 | CC(=O)c1nc2ccccc2n1CCn1cnc2c(N3CCOCC3)ncnc21 | 128 (≈ 327 µM) | 256 (≈ 654 µM) | 128 (≈ 327 µM) | 64 (≈ 164 µM) | 128 (≈ 327 µM) | 512 (≈ 1310 µM) | 64 (≈ 164 µM) | 128 (≈ 327 µM) | 128 (≈ 327 µM) | 256 (≈ 654 µM) | 64 (≈ 164 µM) | 32 (≈ 81.8 µM) | 8 (≈ 20.4 µM) | 32 (≈ 81.8 µM) | 32 (≈ 81.8 µM) | 256 (≈ 654 µM)
9 | Cc1nc2cc([N+](=O)[O-])ccc2n1CCn1cnc2c(N3CCOCC3)ncnc21 | 256 (≈ 627 µM) | 256 (≈ 627 µM) | 128 (≈ 313 µM) | 128 (≈ 313 µM) | 64 (≈ 157 µM) | 256 (≈ 627 µM) | 32 (≈ 78.4 µM) | 16 (≈ 39.2 µM) | 128 (≈ 313 µM) | 512 (≈ 1250 µM) | 128 (≈ 313 µM) | 64 (≈ 157 µM) | 64 (≈ 157 µM) | 16 (≈ 39.2 µM) | 128 (≈ 313 µM) | 64 (≈ 157 µM)
10 | CCCCCCCCCCCCn1c(Cn2cnc3c(N4CCOCC4)ncnc32)nc2ccccc21 | 64 (≈ 127 µM) | 512 (≈ 1020 µM) | 256 (≈ 508 µM) | 128 (≈ 254 µM) | 512 (≈ 1020 µM) | 256 (≈ 508 µM) | 512 (≈ 1020 µM) | 256 (≈ 508 µM) | 32 (≈ 63.5 µM) | 256 (≈ 508 µM) | 512 (≈ 1020 µM) | 128 (≈ 254 µM) | 128 (≈ 254 µM) | 16 (≈ 31.8 µM) | 256 (≈ 508 µM) | 64 (≈ 127 µM)
